Key:
[1] = Inhibition of bovine brain tubulin polymerization preincubated for 15 mins followed by GTP addition measured after 20 mins by Spectrophotometric method; design: species or system Bos taurus
Bos taurus = species: Bos taurus; experiment: Inhibition of [3H]colchicine binding to bovine brain tubulin at 5 uM after 10 mins by scintillation counting method relative to control
[2] = Drug metabolism in pH 7.4 PBS assessed as compound hydrolysis after 24 hrs by HPLC method; format: physicochemical; conditions: read-out: Drug metabolism
[3] = molecular target: T1, NADPH--cytochrome P450 reductase (P450 oxidoreductase) (Rattus norvegicus, UniProt P00388); experiment: Drug metabolism in pH 7.4 PBS assessed as rat P450 oxidoreductase-mediated compound hydrolysis preincubated for 20 mins followed by protocatechuate 3,4-dioxygenase addition to create anoxic condition and subsequent addition of P450 oxidoreductase in presence of NADPH after 24 hrs by HPLC method; format: ADME; conditions: rat P450 oxidoreductase with NADPH in PBS, read-out: Drug metabolism
T1 sequence (P00388 whole entry): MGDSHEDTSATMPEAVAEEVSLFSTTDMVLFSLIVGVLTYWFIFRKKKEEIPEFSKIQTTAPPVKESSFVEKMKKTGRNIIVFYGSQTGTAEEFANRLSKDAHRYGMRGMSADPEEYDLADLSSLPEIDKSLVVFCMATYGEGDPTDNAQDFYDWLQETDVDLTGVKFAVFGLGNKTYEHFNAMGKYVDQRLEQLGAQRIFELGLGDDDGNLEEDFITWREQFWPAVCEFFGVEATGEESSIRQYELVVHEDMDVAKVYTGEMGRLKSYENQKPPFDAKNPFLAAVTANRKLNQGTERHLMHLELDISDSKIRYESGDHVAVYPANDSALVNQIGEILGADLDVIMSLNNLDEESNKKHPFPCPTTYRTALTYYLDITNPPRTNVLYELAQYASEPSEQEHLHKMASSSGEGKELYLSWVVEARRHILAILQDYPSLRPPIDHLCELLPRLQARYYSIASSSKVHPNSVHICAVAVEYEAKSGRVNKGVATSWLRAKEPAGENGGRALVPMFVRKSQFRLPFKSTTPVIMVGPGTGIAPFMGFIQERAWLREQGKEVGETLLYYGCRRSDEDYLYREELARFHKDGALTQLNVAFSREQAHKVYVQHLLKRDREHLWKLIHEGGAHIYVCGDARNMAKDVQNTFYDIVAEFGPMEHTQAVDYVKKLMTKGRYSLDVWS

COc1ccc(C(=O)c2cc(OC)c(OC)c(OC)c2)cc1OCc1ccc([N+](=O)[O-])o1
IC50 [1]: 15 µM | inhibition (Bos taurus): 17%

COc1ccc(C(=O)c2cc(OC)c(OC)c(OC)c2)cc1OC(C)(C)c1ccc([N+](=O)[O-])o1
IC50 [1]: > 20 µM | inhibition (Bos taurus): 13% | degraded at 24 h [2]: 0% | metabolised at 24 h [3]: 100%

COc1ccc(C(=O)c2cc(OC)c(OC)c(OC)c2)cc1O [PHENSTATIN]
IC50 [1]: 1 µM | inhibition (Bos taurus): 85%

COc1ccc(C(=O)c2cc(OC)c(OC)c(OC)c2)cc1OC(C)(C)c1ccc([N+](=O)[O-])s1
IC50 [1]: 9 µM | inhibition (Bos taurus): 16% | degraded at 24 h [2]: 0% | metabolised at 24 h [3]: 100%

COc1ccc(C(=O)c2cc(OC)c(OC)c(OC)c2)cc1OC(C)c1cnc([N+](=O)[O-])n1C (stereo unspecified)
IC50 [1]: > 20 µM | inhibition (Bos taurus): 11%

COc1ccc(/C=C\c2cc(OC)c(OC)c(OC)c2)cc1O [COMBRETASTATIN A4]
IC50 [1]: 0.73 µM

COc1ccc(C(=O)c2cc(OC)c(OC)c(OC)c2)cc1OCc1ccc([N+](=O)[O-])s1
IC50 [1]: 16 µM | inhibition (Bos taurus): 19%

COc1ccc(C(=O)c2cc(OC)c(OC)c(OC)c2)cc1OCc1cnc([N+](=O)[O-])n1C
IC50 [1]: > 20 µM | inhibition (Bos taurus): 7.1%

COc1ccc(C(=O)c2cc(OC)c(OC)c(OC)c2)cc1OC(C)c1ccc([N+](=O)[O-])s1 (stereo unspecified)
IC50 [1]: > 20 µM | inhibition (Bos taurus): 15%

COc1ccc(C(=O)c2cc(OC)c(OC)c(OC)c2)cc1OC(C)c1ccc([N+](=O)[O-])cc1 (stereo unspecified)
IC50 [1]: > 20 µM | inhibition (Bos taurus): 5.8%

COc1ccc(C(=O)c2cc(OC)c(OC)c(OC)c2)cc1OCc1ccc([N+](=O)[O-])cc1
IC50 [1]: > 20 µM | inhibition (Bos taurus): 11%

COc1ccc(C(=O)c2cc(OC)c(OC)c(OC)c2)cc1OC(C)(C)c1ccc([N+](=O)[O-])cc1
IC50 [1]: > 20 µM | inhibition (Bos taurus): 8.8% | degraded at 24 h [2]: 0% | metabolised at 24 h [3]: 0%

COc1ccc(C(=O)c2cc(OC)c(OC)c(OC)c2)cc1OC(C)c1ccc([N+](=O)[O-])o1 (stereo unspecified)
IC50 [1]: 12 µM | inhibition (Bos taurus): 16%

From ChEMBL document CHEMBL4041538, “Bioreductively activatable prodrug conjugates of phenstatin designed to target tumor hypoxia” (Bioorg Med Chem Lett, 2017)
